Reference: patent publication US20260294864A1, “PHARMACEUTICAL COMPOSITION FOR THE TREATMENT AND PREVENTION OF HPV” (NP1 SRL, priority 2022, published 2026)

Tests used:
[1] = tested on: gastric cancer cells; settings: wound-healing and Boyden Chamber assays (Ho H H et al 2010); cited from earlier work
[2] = tested on: glioma cells; settings: wound-healing and Boyden Chamber assays (Lu J et al 2010); cited from earlier work
[3] = tested on: HeLa cells; test: Anti-clonogenic activity on HeLa cells (plating efficiency assay / live cell imaging); assay type: cell-based, human; settings: for Anti-clonal effect / end point clonal assay, clonal inhibition alone: 50 μM; for Anti-clonal effect: isolated, FIG. 1; for clonal inhibition in combination with Apigenin: 50 μM combined with Apigenin 25 μM; for clonal inhibition in combination with Apigenin / end point clonal assay, clonal inhibition alone: FIG. 9-11; for clonal inhibition in combination with Galangin: 50 μM combined with Galangin 12.5 μM, FIG. 9-10; for end point clonal assay, clonal inhibition alone: administered alone
Procedure: Panel C and D: diagrammatic topographical maps of treatments and growth conditions on plates A and B respectively.
Panel A. Hela cells were challenged with serial twofold dilutions of 50 μM Luteolin (in columns 1-6) and 100 μM Galangin (columns 7-10). Hela control untreated cells in columns 11-12.
(§1) A total of 6 cell lines, outlined in Table 3, were used for this study. The cell lines were obtained from Research Centres of cell biology in Italy, United Kingdom and Germany. This research raised no ethical concern being based on entirely in vitro experiments using no patients' derived information or material. In compliance with National and International ethical rules, no informed consent is needed.
(§2) HeLa cells are the oldest continuous cell lines and were originally derived from a HPV18 positive metastatic cervical carcinoma (Scherer W F et al 1953). Siha cells are an epithelioid like cell line derived from a HPV16-positive invasive cervical squamous carcinoma (Friedel F et al 1970). Ca-Ski cells are a line harboring multiple copy of transcriptionally active HPV16 genomes (Baker C C et al 1984). Both Hela and Siha were a kind gift of prof MS Campo, The Beatson Institute for Cancer Research, Glasgow, Scotland. These two cell lines because of their versatility and ease of use were used for most of experiments reported. Ca-Ski cells were obtained through the courtesy of prof. Matthias Durst, at the Deutsch Krebsforschungzentrum—Heidelberg, FRG. These cells used together with Siha provide a model for the genetic instability and variability of cervical cancers. HK-168 is an immortalized, non-tumorigenic, continuous cell line derived from human skin keratinocytes in vitro transformed with whole HPV16 genome (De Marco F et al 2007). This cell line is reputed to recapitulate le biological features of transformed dysplastic cells and was used in preliminary experiments to set the experimental dosages and conditions. The ME-180 cells are a cell line harboring a few, transcriptionally active, copies of HPV68 and provide an in vitro model for dysplastic/neoplastic lesions induced by HPV with Intermediate oncogenic Risk (Yee C C et al 1985). The HaCaT cells, derived from a solar skin lesion by Petra Boukamp et al (1988) are here used as an in vitro equivalent of Ultra-Violet induced pre-neoplastic epithelial cells to rule out possible direct toxic effects of polyphenols. Both HaCaT and ME-180, were kindly donated by Prof. Matthias Durst. Hela, Siha, Ca-Ski, ME-180 and HaCaT were all grown in high glucose DMEM supplemented with 10% fetal calf serum (FCS). The HK-168 cells, which retained the ability to terminally differentiate under high Ca^2+ and FCS concentrations, were grown in K-SFM, a chemically defined medium supplemented with human EGF and bovine pituitary extract (ThermoFisher Scientific, Life Technologies, Monza—MI). Each cell line was sub-cultured twice a week at the appropriate split ratio according to the specific proliferative index. In no case antibiotics or antimycotics were added to the culture media. For the present study, all cell lines were retrieved from an in-house cell archive facility.
The anti-clonogenic activity was evaluated both by the current standard qualitative plating efficiency assay and by quantitative live cell imaging analysis ([…] S3 Live Cell Analysis Imaging System—Sartorius Welwyn Garden City, Hertfordshire, UK).

[4] = tested on: Siha cells; test: Anti-clonogenic activity on SiHa cells (plating efficiency assay / live cell imaging); assay type: cell-based, human; settings: for inhibition at 25 µM: Homo sapiens, single compound, 24 hours treatment then wash-out, FIG. 12, read-out: clonal inhibition
Procedure: In this experiment Kaempferol and Apigenin were administered to Siha cells at decremental concentrations, either in combination or alone, as shown in the topographical map (in panel C). […] Histograms in Panel B depict the number of colonies per well as evaluated by visual inspection and count.
The Histograms in Panel B depict the number of colonies per well as evaluated by visual inspection and count. • In Panel C a topographical map of plate treatments. Each condition was assayed in duplicate.
Kaempferol, Galangin, Luteolin and their combination were administered to SiHa cells at the concentrations of 25 μM each and of 12,5/12,5/6,25 μM for their combination. Treatments were allowed to stay on cells either for 2 or 4/8/16/24 hours. After that, treatments were washed out, cells washed two times with PBS, replenished with fresh medium and the anti-clonal effect was then monitored by live cell image analysis.
as §1, §2

[5] = tested on: Siha cells; test: Antiproliferative effect on Siha cells, live cell analysis; assay type: cell-based, human; settings: Siha 1000 cells/well; for antiproliferative effect: 50 μM, FIG. 2
Procedure: FIG. 2: live cell analysis of RNPs antiproliferative effect. Siha cells were seeded at 1000 cells/well in a 96 well plate and allowed to adhere overnight. The plate was then washed twice with PBS and replenished with 100 microliter/well fresh medium plus 50 μM of each compound. Images were taken every 12 hours; Growth curves were drawn plotting the percentage of confluence versus time. […] In fact, their growth curves outline a single spindle completely overlapping and masking the one of control untreated cells. Conversely, a distinct anti-proliferative effect is evident in panel B- where the growth curves of RNP 9 Kaempferol (solid squares), RNP 12 Luteolin (solid diamonds), RNP 16 Apigenin (solid circles) and control untreated cells (solid stars) are depicted. […] Each point represents the mean of six independent replicas. Bar width represents the Standard Deviation (SD). Consistent results were also obtained by HeLa and ME-180 cells
(§3) For antiproliferative effect cells were seeded in 96-well microplates at 1000 cells/per well (i.e.: 30 cell/mm^2), a density allowing exponential growth rate for the subsequent 8-day incubation. After overnight adhesion cell monolayers were washed and replenished with fresh media with different testing molecules, plain medium served as cell growth control.
(§4) Cell growth was then monitored by automated INCUCTE S3 imaging Systems. Images were acquired at 12-hours intervals. The analysis parameters were as follows: segmentation adjustment=0.9; hole fill <7,000 μm^2; adjusted pixel=0.
Data for growth curves, anti-clonal and Antiproliferative assays were obtained from at least three independent experiments. Each data point of quantitative anti-proliferative or anti-clonal experiments represents the mean (±SD) of eight independent replicates. Data were analyzed and plotted using Prism 6.0 software (GraphPad Software, San Diego, CA).

[6] = tested on: HPV transformed cells; test: Anti-clonal effect on HPV transformed cells (cell line not stated); assay type: cell-based, human; settings: for IC50: Homo sapiens, minimal concentration reducing 50% of CFU of treated versus control, read-out: CID50 (50% clonal inhibitory dose), isolated polyphenols; for IC50 / IRR (inhibitory relative rate) / anticlonogenic / anti-clonal effect: isolated compound; for IRR (inhibitory relative rate): reverse ratio of CID50 to the reference CID50 of Quercetin (=1); for anticlonogenic / anti-clonal effect / clonal inhibition in combination: summary statement
Procedure: The inhibitory relative rate (IRR) (fourth column) provides an efficacy ranking of molecules.
The anti-clonogenic activity was evaluated both by the current standard qualitative plating efficiency assay and by quantitative live cell imaging analysis (INCUCYTE S3 Live Cell Analysis Imaging System—Sartorius Welwyn Garden City, Hertfordshire, UK). For qualitative plating efficiency assay cells were seeded at ‘clonal’ density (i.e., 0.5 cell/mm^2) either in medium containing the testing molecules or with plain medium and incubated without any further manipulation. After 9-14 days, according to the cell line specific proliferative index, the cultures were decanted and stained with 0.2% CV/methanol for 5 min at room temperature. All conditions were tested in triplicates in a 6-well culture plate. The anti-clonogenic activity of the treatments was evaluated using the colony forming units (CFU) of treated versus control cultures. The minimal concentration which could reduce 50% of the CFU of treated versus control culture was defined as colony-forming Inhibitory concentration (CID50). For quantitative evaluation cells were seeded in 96-well microplates at the above density and condition and allowed to grow the subsequent 8-day incubation in the INCUCYTE S3 Imaging System. Images were acquired at 12-hours intervals and colony formation and percentage of growth area covered (confluency) were then monitored through automated image analysis. The analysis parameters were as follows: segmentation adjustment=0.4; hole fill <5,000 μm^2; adjusted pixel=−2.

[7] = tested on: HPV transformed cells; test: Antiproliferative effect on HPV transformed cells (cell line not stated); assay type: cell-based, human; settings: summary statement, isolated compound
Procedure: as §3, §4

[8] = tested on: PC3 prostate cancer cells; settings: PC3 cells (Lansky E P et al 2005); cited from earlier work
[9] = tested on: ME-180 cells; test: Anti-clonogenic activity on ME-180 cells; assay type: cell-based, human; settings: compared with HeLa data of FIG. 10
From the text: (§5) HeLa cells are the oldest continuous cell lines and were originally derived from a HPV18 positive metastatic cervical carcinoma (Scherer W F et al 1953). Siha cells are an epithelioid like cell line derived from a HPV16-positive invasive cervical squamous carcinoma (Friedel F et al 1970). Ca-Ski cells are a line harboring multiple copy of transcriptionally active HPV16 genomes (Baker C C et al 1984). Both Hela and Siha were a kind gift of prof MS Campo, The Beatson Institute for Cancer Research, Glasgow, Scotland. These two cell lines because of their versatility and ease of use were used for most of experiments reported. Ca-Ski cells were obtained through the courtesy of prof. Matthias Durst, at the Deutsch Krebsforschungzentrum—Heidelberg, FRG. […]
(§6) The anti-clonogenic activity was evaluated both by the current standard qualitative plating efficiency assay and by quantitative live cell imaging analysis (INCUCYTE S3 Live Cell Analysis Imaging System—Sartorius Welwyn Garden City, Hertfordshire, UK). […] The anti-clonogenic activity of the treatments was evaluated using the colony forming units (CFU) of treated versus control cultures. […] For quantitative evaluation cells were seeded in 96-well microplates at the above density and condition and allowed to grow the subsequent 8-day incubation in the INCUCYTE S3 Imaging System. […]

[10] = tested on: Ca-Ski cells; test: Anti-clonogenic activity on Ca-Ski cells; assay type: cell-based, human; settings: compared with HeLa data of FIG. 10
From the text: as §5, §6

Row | Compound | Anti-clonal effect ([3]; HeLa) | inhibition at 25 µM ([4]; SiHa) | antiproliferative effect [5] | IC50 [6] | IRR (inhibitory relative rate) [6] | anticlonogenic / anti-clonal effect [6] | antiproliferative effect [7] | clonal inhibition in combination with Apigenin ([3]; HeLa) | clonal inhibition in combination with Galangin ([3]; HeLa) | end point clonal assay, clonal inhibition alone ([3]; HeLa) | further results
1 | O=C(O)c1cc(O)c(O)c(O)c1 [Gallic acid] |  |  |  |  |  |  |  |  |  |  | migration of gastric cancer cells [1]: reduce the migration; migration of glioma cells [2]: reduce the migration
2 | O=c1cc(-c2ccc(O)c(O)c2)oc2cc(O)cc(O)c12 [Luteolin] | almost complete suppression of clonal activity | ~50% | almost complete suppression of proliferation | 6.25 µM | 8 | sharp anticlonogenic and antiproliferative effect | sharp anticlonogenic and antiproliferative effect |  |  |  | IC50 ([3]; Homo sapiens, HeLa, serial twofold dilutions (Luteolin from 50 μM, Galangin from 100 μM), live cell image analysis, FIG. 3, read-out: CID50 (50% clonal inhibitory dose)): 6.25 µM; inhibition at up to 50 µM ([3]; Homo sapiens, wells D:1-6, serial twofold dilutions of 50 μM, HeLa, FIG. 3, read-out: anti-clonal titration, inhibition in wells D:1-6): ~50%; anti-clonal effect at concentrations above CID50 ([3]; higher concentrations than CID50, HeLa, FIG. 3): completely suppressive; anti-clonal titration, inhibition in wells C:1-6 ([3]; wells C:1-6, serial twofold dilutions of 50 μM, HeLa, FIG. 3): almost complete inhibition; end-point anti-clonal effect versus control untreated cells ([4]; 6.25 μM, alone, SiHa, FIG. 6-8): no difference to control untreated cells; antiproliferative effect ([5]; listed as luteolin): sharp antiproliferative effect
3 | O=C(O)/C=C/c1ccc(O)c(O)c1 [Caffeic acid] | devoid of any significant anticlonogenic effect |  |  |  |  | devoid of any direct activity |  | almost complete clonal inhibition | almost complete clonal inhibition | neither of them induced any effect | synergistic effect with Galangine and Apigenin ([3]; in association, HeLa, FIG. 9): synergistic effect; clonal inhibition in combination ([6]; combined with Galangin or Quercetin): a certain grade of clonal inhibition; anticlonogenic / anti-clonal effect ([6]; listed as Caffeic): devoid of. any direct anticlonogenic activity; reduction of invasiveness [8]: 50%
4 | O=c1c(O)c(-c2ccc(O)cc2)oc2cc(O)cc(O)c12 [Kaempferol] | almost complete suppression of clonal activity | ~50% | distinct, although milder effect | 25 µM | 2 | sharp anticlonogenic and antiproliferative effect | sharp anticlonogenic and antiproliferative effect |  |  |  | clonal efficiency versus control untreated cells ([4]; 12.5 μM, alone, Siha, FIG. 4): no difference to control untreated cells; inhibition at 50 µM ([5]; Homo sapiens, FIG. 2, read-out: suppression of proliferation): ~40%
5 | COc1cc(/C=C/C(=O)O)ccc1O [Ferulic acid] | devoid of any significant anticlonogenic effect |  |  |  |  | devoid of. any direct anticlonogenic activity |  | almost complete clonal inhibition | almost complete clonal inhibition | Neither of them induced any effect | clonal inhibition in combination with Chrysin ([3]; 50 μM combined with Chrysin 25 μM, HeLa, FIG. 10-11): almost complete clonal inhibition; synergy with Galangine, Apigenin and Chrysin ([3]; in association, HeLa, FIG. 10-11): synergize; clonal inhibition with Galangin, Chrysin or Apigenin [9]: Superimposable results; clonal inhibition with Galangin, Chrysin or Apigenin [10]: Superimposable results; clonal inhibition in combination ([6]; combined with Galangin, Chrysin or Apigenin): a certain grade of clonal inhibition
